Results taken from patent US12077503B2, “Substituted cyclic amides and their use as herbicides” (FMC CORPORATION, priority 2015, dated 2024).

Assays:
Type in all cases: in vivo
[1] = tested on: velvetleaf (Abutilon theophrasti); test: Test G Post-Emergence Protocol; conditions: Abutilon theophrasti, post-emergence, 312 h; for pest or weed control at 15.625 g/ha: 15.625 g ai/ha, evaluated after 13 days (100=total damage to plant; 0=no damage to plant), read-out: Velvetleaf damage rating; for pest or weed control at 62.5 g/ha: 62.5 g ai/ha, read-out: Velvetleaf damage rating (100=total damage to plant; 0=no damage to plant); for pest or weed control at 62.5 g/ha / pest or weed control at 250 g/ha: evaluated after 13 days; for pest or weed control at 250 g/ha: 250 g ai/ha, read-out: damage to plant, Velvetleaf (100=total damage to plant; 0=no damage to plant)
Summary of the method: (§1)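 Seedlings grown 8 days in soil in a glasshouse (24/16 °C day/night, 14 h light, 65% humidity) were sprayed post-emergence with compound in acetone/water 50:50 plus 0.5% Tween 20 at 15.625, 62.5 or 250 g/ha. Damage was scored after 13 days on a 0–100 scale (100 = total damage).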

[2] = tested on: giant foxtail (Setaria faberi); test: Test G Post-Emergence Protocol; conditions: Setaria faberi, post-emergence, 312 h; for pest or weed control at 15.625 g/ha: 15.625 g ai/ha, evaluated after 13 days (100=total damage to plant; 0=no damage to plant), read-out: Foxtail, Giant damage rating; for pest or weed control at 62.5 g/ha: 62.5 g ai/ha, read-out: Foxtail, Giant damage rating (100=total damage to plant; 0=no damage to plant); for pest or weed control at 62.5 g/ha / pest or weed control at 250 g/ha: evaluated after 13 days; for pest or weed control at 250 g/ha: 250 g ai/ha, read-out: damage to plant, Foxtail, Giant (100=total damage to plant; 0=no damage to plant)
Summary of the method: as §1

[3] = tested on: redroot pigweed (Amaranthus retroflexus); test: Test G Post-Emergence Protocol; conditions: Amaranthus retroflexus, post-emergence, 312 h; for pest or weed control at 15.625 g/ha: 15.625 g ai/ha, evaluated after 13 days (100=total damage to plant; 0=no damage to plant), read-out: Pigweed, Redroot damage rating; for pest or weed control at 62.5 g/ha: 62.5 g ai/ha, read-out: Pigweed, Redroot damage rating (100=total damage to plant; 0=no damage to plant); for pest or weed control at 62.5 g/ha / pest or weed control at 250 g/ha: evaluated after 13 days; for pest or weed control at 250 g/ha: 250 g ai/ha, read-out: damage to plant, Pigweed, Redroot (100=total damage to plant; 0=no damage to plant)
Summary of the method: as §1

[4] = tested on: barnyardgrass (Echinochloa crus-galli); test: Test G Post-Emergence Protocol; conditions: Echinochloa crus-galli, post-emergence, 312 h; for pest or weed control at 15.625 g/ha: 15.625 g ai/ha, evaluated after 13 days (100=total damage to plant; 0=no damage to plant), read-out: Barnyardgrass damage rating; for pest or weed control at 62.5 g/ha: 62.5 g ai/ha, read-out: Barnyardgrass damage rating (100=total damage to plant; 0=no damage to plant); for pest or weed control at 62.5 g/ha / pest or weed control at 250 g/ha: evaluated after 13 days; for pest or weed control at 250 g/ha: 250 g ai/ha, read-out: damage to plant, Barnyardgrass (100=total damage to plant; 0=no damage to plant)
Summary of the method: as §1

[5] = tested on: corn (Zea mays); test: Test G Post-Emergence Protocol; conditions: Zea mays, post-emergence, 312 h; for plant injury at 15.625 g/ha: 15.625 g ai/ha, evaluated after 13 days (100=total damage to plant; 0=no damage to plant), read-out: Corn damage rating; for plant injury at 62.5 g/ha: 62.5 g ai/ha, read-out: Corn damage rating (100=total damage to plant; 0=no damage to plant); for plant injury at 62.5 g/ha / plant injury at 250 g/ha: evaluated after 13 days; for plant injury at 250 g/ha: 250 g ai/ha, read-out: damage to plant, Corn (100=total damage to plant; 0=no damage to plant)
Summary of the method: as §1

[6] = tested on: ivy-leaved morning glory (Ipomoea hederacea); test: Test G Post-Emergence Protocol; conditions: Ipomoea, post-emergence, 312 h; for pest or weed control at 15.625 g/ha: 15.625 g ai/ha, evaluated after 13 days (100=total damage to plant; 0=no damage to plant), read-out: Morningglory, Ivy-leaved damage rating; for pest or weed control at 62.5 g/ha: 62.5 g ai/ha, read-out: Morningglory, Ivy-leaved damage rating (100=total damage to plant; 0=no damage to plant); for pest or weed control at 62.5 g/ha / pest or weed control at 250 g/ha: evaluated after 13 days; for pest or weed control at 250 g/ha: 250 g ai/ha, read-out: damage to plant, Morningglory, Ivy-leaved (100=total damage to plant; 0=no damage to plant)
Summary of the method: as §1

[7] = tested on: velvetleaf (Abutilon theophrasti); test: Test G Pre-Emergence Protocol; conditions: Abutilon theophrasti, pre-emergence, 312 h, evaluated after 13 days; for pest or weed control at 15.625 g/ha: 15.625 g ai/ha; for pest or weed control at 15.625 g/ha / pest or weed control at 250 g/ha: read-out: Velvetleaf damage rating (100=total damage to plant; 0=no damage to plant); for pest or weed control at 62.5 g/ha: 62.5 g ai/ha, 100=total damage to plant, 0=no damage to plant, read-out: plant damage rating, Velvetleaf; for pest or weed control at 250 g/ha: 250 g ai/ha
Summary of the method: (§2)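 Visual injury (0–100) at day 13 after a single pre-emergence spray. Rates: 15.625, 62.5, 250 g/ha in acetone–water 50:50 with 0.5% Tween 20. Growth conditions: 24/16° C, 14 h light, 65% humidity.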

[8] = tested on: giant foxtail (Setaria faberi); test: Test G Pre-Emergence Protocol; conditions: Setaria faberi, pre-emergence, 312 h, evaluated after 13 days; for pest or weed control at 15.625 g/ha: 15.625 g ai/ha; for pest or weed control at 15.625 g/ha / pest or weed control at 250 g/ha: read-out: Foxtail, Giant damage rating (100=total damage to plant; 0=no damage to plant); for pest or weed control at 62.5 g/ha: 62.5 g ai/ha, 100=total damage to plant, 0=no damage to plant, read-out: plant damage rating, Foxtail, Giant; for pest or weed control at 250 g/ha: 250 g ai/ha
Summary of the method: as §2

[9] = tested on: redroot pigweed (Amaranthus retroflexus); test: Test G Pre-Emergence Protocol; conditions: Amaranthus retroflexus, pre-emergence, 312 h, evaluated after 13 days; for pest or weed control at 15.625 g/ha: 15.625 g ai/ha; for pest or weed control at 15.625 g/ha / pest or weed control at 250 g/ha: read-out: Pigweed, Redroot damage rating (100=total damage to plant; 0=no damage to plant); for pest or weed control at 62.5 g/ha: 62.5 g ai/ha, 100=total damage to plant, 0=no damage to plant, read-out: plant damage rating, Pigweed, Redroot; for pest or weed control at 250 g/ha: 250 g ai/ha
Summary of the method: as §2

[10] = tested on: barnyardgrass (Echinochloa crus-galli); test: Test G Pre-Emergence Protocol; conditions: Echinochloa crus-galli, pre-emergence, 312 h, evaluated after 13 days; for pest or weed control at 15.625 g/ha: 15.625 g ai/ha, read-out: Barnyard grass damage rating (100=total damage to plant; 0=no damage to plant); for pest or weed control at 62.5 g/ha: 62.5 g ai/ha, 100=total damage to plant, 0=no damage to plant, read-out: plant damage rating, Barnyardgrass; for pest or weed control at 250 g/ha: 250 g ai/ha, read-out: Barnyardgrass damage rating (100=total damage to plant; 0=no damage to plant)
Summary of the method: as §2

[11] = tested on: corn (Zea mays); test: Test G Pre-Emergence Protocol; conditions: Zea mays, pre-emergence, 312 h, evaluated after 13 days; for plant injury at 15.625 g/ha: 15.625 g ai/ha; for plant injury at 15.625 g/ha / plant injury at 250 g/ha: read-out: Corn damage rating (100=total damage to plant; 0=no damage to plant); for plant injury at 62.5 g/ha: 62.5 g ai/ha, 100=total damage to plant, 0=no damage to plant, read-out: plant damage rating, Corn; for plant injury at 250 g/ha: 250 g ai/ha
Summary of the method: as §2

[12] = tested on: ivy-leaved morning glory (Ipomoea hederacea); test: Test G Pre-Emergence Protocol; conditions: Ipomoea, pre-emergence, 312 h, evaluated after 13 days; for pest or weed control at 15.625 g/ha: 15.625 g ai/ha, read-out: Morning-glory, Ivy-leaved damage rating (100=total damage to plant; 0=no damage to plant); for pest or weed control at 62.5 g/ha: 62.5 g ai/ha, 100=total damage to plant, 0=no damage to plant, read-out: plant damage rating, Morningglory, Ivy-leaved; for pest or weed control at 250 g/ha: 250 g ai/ha, read-out: Morningglory, Ivy-leaved damage rating (100=total damage to plant; 0=no damage to plant)
Summary of the method: as §2

| Structure (SMILES) | pest or weed control at 15.625 g/ha [1] | pest or weed control at 62.5 g/ha [1] | pest or weed control at 250 g/ha [1] | pest or weed control at 15.625 g/ha [2] | pest or weed control at 62.5 g/ha [2] | pest or weed control at 250 g/ha [2] | pest or weed control at 15.625 g/ha [3] | pest or weed control at 62.5 g/ha [3] | pest or weed control at 250 g/ha [3] | pest or weed control at 15.625 g/ha [4] | pest or weed control at 62.5 g/ha [4] | pest or weed control at 250 g/ha [4] | plant injury at 15.625 g/ha [5] | plant injury at 62.5 g/ha [5] | plant injury at 250 g/ha [5] | pest or weed control at 15.625 g/ha [6] | pest or weed control at 62.5 g/ha [6] | pest or weed control at 250 g/ha [6] | pest or weed control at 15.625 g/ha [7] | pest or weed control at 62.5 g/ha [7] | other results |
| --- | --- | --- | --- | --- | --- | --- | --- | --- | --- | --- | --- | --- | --- | --- | --- | --- | --- | --- | --- | --- | --- |
| Cc1cc(NC(=O)[C@@H]2C(=O)N(C)C[C@H]2c2ccc(C(F)(F)F)cc2)on1 (racemic) [Compound 1579] | 0% | 0% | 0% | 0% | 0% | 0% | 0% | 0% | 0% | 0% | 10% | 10% | 0% | 0% | 0% | 0% | 0% | 0% | 0% | 0% | pest or weed control at 250 g/ha [7]: 0%; pest or weed control at 15.625 g/ha [8]: 0%; pest or weed control at 62.5 g/ha [8]: 0%; pest or weed control at 250 g/ha [8]: 0%; pest or weed control at 15.625 g/ha [9]: 0%; pest or weed control at 62.5 g/ha [9]: 0%; pest or weed control at 250 g/ha [9]: 0%; pest or weed control at 15.625 g/ha [10]: 0%; pest or weed control at 62.5 g/ha [10]: 0%; pest or weed control at 250 g/ha [10]: 0%; plant injury at 15.625 g/ha [11]: 0%; plant injury at 62.5 g/ha [11]: 0%; plant injury at 250 g/ha [11]: 0%; pest or weed control at 15.625 g/ha [12]: 0%; pest or weed control at 62.5 g/ha [12]: 0%; pest or weed control at 250 g/ha [12]: 0% |
| CN1C[C@H](c2ccc(C(F)(F)F)cc2)[C@@H](C(=O)Nc2ncc(F)cc2F)C1=O (racemic) [Compound 1452] | 0% | 0% | 10% | 0% | 0% | 10% | 0% | 0% | 10% | 0% | 0% | 0% | 0% | 0% | 0% | 0% | 10% | 10% | 0% | 0% | pest or weed control at 250 g/ha [7]: 30%; pest or weed control at 15.625 g/ha [8]: 0%; pest or weed control at 62.5 g/ha [8]: 0%; pest or weed control at 250 g/ha [8]: 60%; pest or weed control at 15.625 g/ha [9]: 0%; pest or weed control at 62.5 g/ha [9]: 0%; pest or weed control at 250 g/ha [9]: 0%; pest or weed control at 15.625 g/ha [10]: 0%; pest or weed control at 62.5 g/ha [10]: 0%; pest or weed control at 250 g/ha [10]: 50%; plant injury at 15.625 g/ha [11]: 0%; plant injury at 62.5 g/ha [11]: 0%; plant injury at 250 g/ha [11]: 0%; pest or weed control at 15.625 g/ha [12]: 0%; pest or weed control at 62.5 g/ha [12]: 0%; pest or weed control at 250 g/ha [12]: 0% |
